Test results reported in the NIST ThermoML archive (doi:10.1021/je400149j).
Numbers after ± are expanded uncertainties.

Assays:
[1] = Crystal; Derived from relative static permittivity measurements of the liquid and solid states
[2] = relative permittivity at zero frequency (dimensionless); settings: 101 kPa, Liquid, impedance/gain phase analyzer
[3] = relative permittivity at zero frequency (dimensionless); xn = mol fraction of the nth substance listed; settings: 101 kPa, Liquid, impedance/gain phase analyzer, x2 = 0

In the case of `C[S+](C)[O-]` [dimethyl sulfoxide], the Normal melting temperature [1] is reported as 18.1 ± 1 °C, the “relative permittivity at zero frequency” value ([2]; 291.15 K) is reported as 47.15 ± 0.1 and the “relative permittivity at zero frequency” value ([2]; 293.15 K) is reported as 47.09 ± 0.1. The “relative permittivity at zero frequency” value ([2]; 295.15 K) was 46.84 ± 0.1, the “relative permittivity at zero frequency” value ([2]; 297.15 K) was 46.64 ± 0.1 and the “relative permittivity at zero frequency” value ([2]; 299.15 K) was 46.39 ± 0.1. For the same compound, the “relative permittivity at zero frequency” value ([2]; 301.15 K) was 46.18 ± 0.1, the “relative permittivity at zero frequency” value ([2]; 303.15 K) was 45.94 ± 0.1 and the “relative permittivity at zero frequency” value ([2]; 305.15 K) was 45.63 ± 0.1. The “relative permittivity at zero frequency” value ([2]; 307.15 K) was 45.39 ± 0.1, the “relative permittivity at zero frequency” value ([2]; 309.15 K) was 45.14 ± 0.1 and the “relative permittivity at zero frequency” value ([2]; 311.15 K) was 44.88 ± 0.1. The “relative permittivity at zero frequency” value ([2]; 313.15 K) was 44.64 ± 0.1, the “relative permittivity at zero frequency” value ([2]; 315.15 K) was 44.34 ± 0.1 and the “relative permittivity at zero frequency” value ([2]; 317.15 K) was 44.11 ± 0.1. For the same compound, the “relative permittivity at zero frequency” value ([2]; 319.15 K) was 43.87 ± 0.1, the “relative permittivity at zero frequency” value ([2]; 321.15 K) was 43.58 ± 0.1 and the “relative permittivity at zero frequency” value ([2]; 323.15 K) was 43.31 ± 0.1. For the same compound, the “relative permittivity at zero frequency” value ([2]; 325.15 K) was 43.07 ± 0.1, the “relative permittivity at zero frequency” value ([2]; 327.15 K) was 42.78 ± 0.1 and the “relative permittivity at zero frequency” value ([2]; 329.15 K) was 42.56 ± 0.1. The “relative permittivity at zero frequency” value ([2]; 331.15 K) was 42.27 ± 0.1 and the “relative permittivity at zero frequency” value ([2]; 333.15 K) was 42 ± 0.1.
With `O` [water] + C[S+](C)[O-] the “relative permittivity at zero frequency” value ([3]; 273.15 K) was 87 ± 0.1, the “relative permittivity at zero frequency” value ([3]; 275.15 K) was 86.36 ± 0.1 and the “relative permittivity at zero frequency” value ([3]; 277.15 K) was 85.67 ± 0.1. The “relative permittivity at zero frequency” value ([3]; 279.15 K) was 84.84 ± 0.1, the “relative permittivity at zero frequency” value ([3]; 281.15 K) was 84.25 ± 0.1 and the “relative permittivity at zero frequency” value ([3]; 283.15 K) was 83.37 ± 0.1. The “relative permittivity at zero frequency” value ([3]; 285.15 K) was 82.73 ± 0.1, the “relative permittivity at zero frequency” value ([3]; 287.15 K) was 82.02 ± 0.1 and the “relative permittivity at zero frequency” value ([3]; 289.15 K) was 81.33 ± 0.1. For the same compound, the “relative permittivity at zero frequency” value ([3]; 291.15 K) was 80.65 ± 0.1, the “relative permittivity at zero frequency” value ([3]; 293.15 K) was 79.98 ± 0.1 and the “relative permittivity at zero frequency” value ([3]; 295.15 K) was 79.32 ± 0.1. For the same compound, the “relative permittivity at zero frequency” value ([3]; 297.15 K) was 78.42 ± 0.1, the “relative permittivity at zero frequency” value ([3]; 299.15 K) was 77.85 ± 0.1 and the “relative permittivity at zero frequency” value ([3]; 301.15 K) was 77.29 ± 0.1. The “relative permittivity at zero frequency” value ([3]; 303.15 K) was 76.61 ± 0.1, the “relative permittivity at zero frequency” value ([3]; 305.15 K) was 75.95 ± 0.1 and the “relative permittivity at zero frequency” value ([3]; 307.15 K) was 75.3 ± 0.1. For the same compound, the “relative permittivity at zero frequency” value ([3]; 309.15 K) was 74.65 ± 0.1, the “relative permittivity at zero frequency” value ([3]; 311.15 K) was 73.97 ± 0.1 and the “relative permittivity at zero frequency” value ([3]; 313.15 K) was 73.29 ± 0.1. For the same compound, the “relative permittivity at zero frequency” value ([3]; 315.15 K) was 72.68 ± 0.1, the “relative permittivity at zero frequency” value ([3]; 317.15 K) was 72.09 ± 0.1 and the “relative permittivity at zero frequency” value ([3]; 319.15 K) was 71.44 ± 0.1. The “relative permittivity at zero frequency” value ([3]; 321.15 K) was 70.76 ± 0.1, the “relative permittivity at zero frequency” value ([3]; 323.15 K) was 70.14 ± 0.1 and the “relative permittivity at zero frequency” value ([3]; 325.15 K) was 69.54 ± 0.1. For the same compound, the “relative permittivity at zero frequency” value ([3]; 327.15 K) was 68.94 ± 0.1, the “relative permittivity at zero frequency” value ([3]; 329.15 K) was 68.3 ± 0.1 and the “relative permittivity at zero frequency” value ([3]; 331.15 K) was 67.68 ± 0.1. The “relative permittivity at zero frequency” value ([3]; 333.15 K) was 67.07 ± 0.1.
In the case of `O` [water], the Normal melting temperature [1] is reported as 0.1 ± 1 °C, the “relative permittivity at zero frequency” value ([2]; 273.15 K) is reported as 87 ± 0.1 and the “relative permittivity at zero frequency” value ([2]; 275.15 K) is reported as 86.36 ± 0.1. For the same compound, the “relative permittivity at zero frequency” value ([2]; 277.15 K) was 85.67 ± 0.1, the “relative permittivity at zero frequency” value ([2]; 279.15 K) was 84.84 ± 0.1 and the “relative permittivity at zero frequency” value ([2]; 281.15 K) was 84.25 ± 0.1. For the same compound, the “relative permittivity at zero frequency” value ([2]; 283.15 K) was 83.37 ± 0.1, the “relative permittivity at zero frequency” value ([2]; 285.15 K) was 82.73 ± 0.1 and the “relative permittivity at zero frequency” value ([2]; 287.15 K) was 82.02 ± 0.1. For the same compound, the “relative permittivity at zero frequency” value ([2]; 289.15 K) was 81.33 ± 0.1, the “relative permittivity at zero frequency” value ([2]; 291.15 K) was 80.65 ± 0.1 and the “relative permittivity at zero frequency” value ([2]; 293.15 K) was 79.98 ± 0.1. For the same compound, the “relative permittivity at zero frequency” value ([2]; 295.15 K) was 79.32 ± 0.1, the “relative permittivity at zero frequency” value ([2]; 297.15 K) was 78.42 ± 0.1 and the “relative permittivity at zero frequency” value ([2]; 299.15 K) was 77.85 ± 0.1. The “relative permittivity at zero frequency” value ([2]; 301.15 K) was 77.29 ± 0.1, the “relative permittivity at zero frequency” value ([2]; 303.15 K) was 76.61 ± 0.1 and the “relative permittivity at zero frequency” value ([2]; 305.15 K) was 75.95 ± 0.1. For the same compound, the “relative permittivity at zero frequency” value ([2]; 307.15 K) was 75.3 ± 0.1, the “relative permittivity at zero frequency” value ([2]; 309.15 K) was 74.65 ± 0.1 and the “relative permittivity at zero frequency” value ([2]; 311.15 K) was 73.97 ± 0.1. The “relative permittivity at zero frequency” value ([2]; 313.15 K) was 73.29 ± 0.1, the “relative permittivity at zero frequency” value ([2]; 315.15 K) was 72.68 ± 0.1 and the “relative permittivity at zero frequency” value ([2]; 317.15 K) was 72.09 ± 0.1. For the same compound, the “relative permittivity at zero frequency” value ([2]; 319.15 K) was 71.44 ± 0.1, the “relative permittivity at zero frequency” value ([2]; 321.15 K) was 70.76 ± 0.1 and the “relative permittivity at zero frequency” value ([2]; 323.15 K) was 70.14 ± 0.1. For the same compound, the “relative permittivity at zero frequency” value ([2]; 325.15 K) was 69.54 ± 0.1, the “relative permittivity at zero frequency” value ([2]; 327.15 K) was 68.94 ± 0.1 and the “relative permittivity at zero frequency” value ([2]; 329.15 K) was 68.3 ± 0.1. The “relative permittivity at zero frequency” value ([2]; 331.15 K) was 67.68 ± 0.1 and the “relative permittivity at zero frequency” value ([2]; 333.15 K) was 67.07 ± 0.1.
